From PMC9352307 (Biochemistry, 2022)

Columns and labels:
[1] = biological target: T1, NADP^+-dependent malic enzyme 1 (ME1) (Homo sapiens, UniProt P48163); assay: X-ray crystal structure; assay type: biochemical
T1 sequence (P48163 1-572): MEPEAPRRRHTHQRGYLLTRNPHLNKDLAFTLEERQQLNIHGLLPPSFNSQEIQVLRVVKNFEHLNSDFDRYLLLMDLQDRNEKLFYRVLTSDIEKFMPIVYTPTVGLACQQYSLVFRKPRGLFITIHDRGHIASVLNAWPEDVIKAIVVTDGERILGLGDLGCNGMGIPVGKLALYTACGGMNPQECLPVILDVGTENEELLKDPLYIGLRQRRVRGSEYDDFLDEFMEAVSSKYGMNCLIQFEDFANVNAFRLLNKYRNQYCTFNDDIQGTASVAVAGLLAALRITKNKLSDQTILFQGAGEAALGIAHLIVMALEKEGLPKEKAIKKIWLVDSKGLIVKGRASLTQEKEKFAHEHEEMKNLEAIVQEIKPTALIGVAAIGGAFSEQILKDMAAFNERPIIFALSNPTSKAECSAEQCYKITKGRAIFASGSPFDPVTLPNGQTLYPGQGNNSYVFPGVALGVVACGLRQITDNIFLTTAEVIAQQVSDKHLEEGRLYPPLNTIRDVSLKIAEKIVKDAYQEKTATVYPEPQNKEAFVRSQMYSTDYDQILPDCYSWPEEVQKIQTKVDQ

[2] = biological target: T1, NADP^+-dependent malic enzyme 1 (ME1); assay: Michaelis–Menten enzyme kinetics; assay type: biochemical

IC50 [1]	Structure (SMILES)	Michaelis-Menten enzyme kinetics [2]
730 nM	CCCc1nc2c(C)ccn(Cc3ccc4nc(-c5ccccc5-c5nnn[nH]5)sc4c3)c-2n1 [AS1134900, 6-[(7-methyl-2-propylimidazo[4,5-b]pyridin-4-yl)methyl]-2-[2-(1H-tetrazol-5-yl)phenyl]-1,3-benzothiazole]	–
–	NC(=O)c1ccc[n+]([C@@H]2O[C@H](COP(=O)(O)OP(=O)(O)OC[C@H]3O[C@@H](n4cnc5c(N)ncnc54)[C@H](OP(=O)(O)O)[C@@H]3O)[C@@H](O)[C@H]2O)c1 [NADP^+]	enzyme kinetics were examined using various concentrations of malate or NADP^+
–	O=C(O)CC(O)C(=O)O (stereo not drawn) [malate]	Michaelis–Menten plot of ME1 activity in the presence of AS1134900 vs DL-malate
